Measurements reported in patent US8637684B2, “Tautomycetin and tautomycetin analog biosynthesis” (Wisconsin Alumni Research Foundation, priority 2010, dated 2014).

What was measured:
[1] = molecular target: T1, SHP2 (Homo sapiens, UniProt Q06124); assay: PTP activity assay with pNPP as substrate: SHP2; format: biochemical
T1 construct: The expression and purification of the SHP2 catalytic domain (residues 262-528) were described previously; made in house
T1 sequence (Q06124 262-528): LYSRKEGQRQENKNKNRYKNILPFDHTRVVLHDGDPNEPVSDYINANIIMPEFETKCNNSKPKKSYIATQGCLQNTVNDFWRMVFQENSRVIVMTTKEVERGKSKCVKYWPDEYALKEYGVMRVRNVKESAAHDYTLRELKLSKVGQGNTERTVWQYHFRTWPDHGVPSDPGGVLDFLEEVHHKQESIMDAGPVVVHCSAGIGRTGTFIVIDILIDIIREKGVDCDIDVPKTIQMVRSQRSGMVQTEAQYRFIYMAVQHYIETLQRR
Method: The effect of the compounds on PTP-catalyzed hydrolysis of p-nitrophenyl phosphate (pNPP) was assessed at pH 7 and 25° C. Members of the PTP superfamily that were included in the screen included the cytosolic PTPs, PTP1B, SHP1, SHP2, Lyp, HePTP, Meg2, and FAP1, the receptor-like PTPs, CD45, LAR, and PTPα, the dual specificity phosphatases VHR, VHX, and Cdc14, and the low molecular weight PTP.
Therefore, all of the IC50 values reported in this study directly reflect the true affinity of the compound for the enzymes tested.

[2] = system: panel of PTPs (PTP1B, SHP1, SHP2, Lyp, HePTP, Meg2, FAP1, CD45, LAR, PTPα, VHR, VHX, Cdc14, low molecular weight PTP); assay: Screen against a panel of PTPs at 10 μM compound (pNPP hydrolysis); format: biochemical; conditions: pH 7, 25° C.
Method: The PTP activity was assayed using pNPP as a substrate at 25° C. in 50 mM 3,3-dimethylglutarate buffer, pH 7.0, containing 1 mM EDTA with an ionic strength of 0.15 M adjusted by NaCl. TTM, TTN and the engineered analogs were analyzed for inhibition of a panel of PTPs at 10 μM compound concentration. For each enzyme screened, test compounds were diluted to 20 μM in 100 μL and combined with 50 μL pNPP at a concentration of 4×Km. The reaction was initiated by the addition of 50 μL of 4× concentrated enzyme and pNPP was allowed to convert to the product p-nitrophenol. The reaction was quenched by the addition of 50 μL of 5N NaOH. Nonenzymatic hydrolysis of pNPP was corrected by measuring the control without the addition of enzyme. Production of p-nitrophenol was monitored by a Spectra MAX385 microplate spectrophotometer (Molecular Devices) at 405 nm using a molar extinction coefficient of 18,000 M^−1 cm^−1. IC50 values were calculated by fitting the absorbance at 405 nm versus inhibitor concentration to the following equation: AI/A0=IC50/(IC50+[I]) where AI is the absorbance at 405 nm of the sample in the presence of inhibitor; Ao is the absorbance at 405 nm in the absence of inhibitor; and [I] is the concentration of the inhibitor. […]

[3] = system: TCR-mediated tyrosine phosphorylation in Jurkat T cells; assay: Anti-CD3 (TCR) induced tyrosine phosphorylation in Jurkat T cells, immunoblot; format: cell-based; conditions: 2-4 μM, 2 hours pretreatment, anti-CD3 stimulation
Method: (§1) Jurkat T cells were grown at 37° C. under an atmosphere of 5% CO2 in RPMI medium 1640 supplemented with 10% FBS. Cells were pretreated with different concentrations of TTN, TTN D-1, or TTM for 2 hours and stimulated with […] anti-CD3 antibody (OKT3; eBioscience) for 5 min and 30 min, respectively. Subsequently, cells were spinned down at 2000 rpm in 4° C., and cell pellets were lysed in 50 mM Tris-HCl (pH 7.5), 150 mM NaCl, 10% glycerol, 1% NP-40, 50 mM NaF, 10 mM pyrophosphate, 5 mM idoacetate, 1 mM sodium orthovanadate, and the protease inhibitor mixture. After 30 min lysing on ice, the cell lysates were centrifuged at 13,200 rpm for 15 min. Total cellular proteins were separated by SDS/PAGE and transferred electrophoretically to nitrocellulose membrane, which was immunoblotted by appropriate antibodies followed by incubation with HRP-conjugated secondary antibodies. Blots were developed using Pierce Pico ECL reagent (Thermo) according to the manufacturer's instructions.
(§2) TTN induces immunosuppression by suppression of TCR-mediated tyrosine phosphorylation and ERK1/2 activity in T cells (Shim et al., 2002). However, the mechanism of action for TTN's ability to block TCR signaling remains undefined. […]

[4] = system: TCR-mediated ERK1/2 activation in Jurkat T cells; assay: Anti-CD3 (TCR) induced ERK1/2 activation in Jurkat T cells, immunoblot; format: cell-based; conditions: 2 hours pretreatment, anti-CD3 stimulation
Method: as §1, §2

[5] = system: PP1; conditions: literature values; cited from earlier work
[6] = system: PP2A; conditions: literature values; cited from earlier work

SMILES: CO[C@H]([C@H](O)CC(=O)[C@@H](C)[C@@H](O)CC[C@@H](C)[C@@H]1O[C@]2(CC[C@@H](C)[C@H](CC[C@H](C)C(C)=O)O2)CC[C@@H]1C)[C@H](OC(=O)C[C@@H](O)C1=C(C)C(=O)OC1=O)C(C)C [TTM, tautomycin, reference compound]
- SHP2 inhibitory activity (in words) [1]: does not inhibit SHP2 activity
- inhibitory activity against the panel of PTPs [2]: neither TTM nor its analogs exhibited any inhibitory activity
- effect on TCR-mediated tyrosine phosphorylation [3]: had no effect
- effect on TCR-mediated ERK1/2 activation [4]: no appreciable change
- IC50 [5]: 22 to 32 nM
- IC50 [6]: 22 to 32 nM
